According to patent US20260265233A1, “BENZOTHIOPHENE DERIVATIVES AS RXFP1 AGONISTS” (BRISTOL-MYERS SQUIBB COMPANY, priority 2021, published 2026):

The molecules below were run against T1, human RXFP1 (Homo sapiens, UniProt Q9HBX9) (assay: hRXFP1 HEK293 cAMP assay (HTRF)). Details: HEK293 cells stably expressing human RXFP1; 30 min at rt; intracellular cAMP by HTRF.
T1 construct: expressed in transfected cells
T1 sequence (Q9HBX9 1-757): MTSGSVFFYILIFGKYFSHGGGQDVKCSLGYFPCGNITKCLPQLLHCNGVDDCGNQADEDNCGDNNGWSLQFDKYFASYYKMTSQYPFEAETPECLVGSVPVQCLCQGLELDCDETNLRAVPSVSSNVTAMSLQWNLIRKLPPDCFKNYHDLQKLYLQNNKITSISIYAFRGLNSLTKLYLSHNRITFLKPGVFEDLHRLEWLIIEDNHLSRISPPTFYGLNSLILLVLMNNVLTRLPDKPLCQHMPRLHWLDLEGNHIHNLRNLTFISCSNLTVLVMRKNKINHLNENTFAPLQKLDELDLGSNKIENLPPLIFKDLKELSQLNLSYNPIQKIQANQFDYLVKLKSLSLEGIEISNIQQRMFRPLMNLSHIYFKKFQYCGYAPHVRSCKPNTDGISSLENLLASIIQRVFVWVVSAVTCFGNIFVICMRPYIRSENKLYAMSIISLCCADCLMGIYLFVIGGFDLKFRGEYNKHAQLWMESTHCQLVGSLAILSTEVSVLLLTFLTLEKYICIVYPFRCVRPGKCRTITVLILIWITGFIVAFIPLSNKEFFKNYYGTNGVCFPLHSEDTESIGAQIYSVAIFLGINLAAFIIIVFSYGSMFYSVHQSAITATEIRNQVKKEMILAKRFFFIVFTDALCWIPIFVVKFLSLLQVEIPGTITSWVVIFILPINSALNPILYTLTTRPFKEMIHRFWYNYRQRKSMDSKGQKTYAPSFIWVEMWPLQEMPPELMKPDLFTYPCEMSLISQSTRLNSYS
Format: cell-based
How it was run: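 HEK293 cells stably expressing human RXFP1 treated 30 min at rt with compound (0.010 nM to 50 μM, 2% DMSO) in HBSS/HEPES buffer with 0.5 mM IBMX. Intracellular cAMP measured by HTRF (665/590 nm ratio) against a cAMP standard curve; potency fitted by 4-parameter logistic.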

EC50 [nM] | SMILES
1400 | COc1ccc(N2CCCC(C(=O)NCCO)C2)cc1C(=O)Nc1c(C(=O)Nc2ccc(F)c(C(F)(F)F)c2)sc2cc(C(F)(F)F)ccc12 (single isomer, unassigned) [Example 230, 1-(3-((2-((4-fluoro-3-(trifluoromethyl)phenyl)carbamoyl)-6-(trifluoromethyl)benzo[b]thiophen-3-yl)carbamoyl)-4-methoxyphenyl)-N-(2-hydroxyethyl) piperidine-3-carboxamide]
1680 | COc1ccc(N2CCCC(C(=O)NCCO)C2)cc1C(=O)Nc1c(C(=O)Nc2ccc(F)c(C(F)(F)F)c2)sc2cc(C(F)(F)F)ccc12 (single isomer, unassigned) [Example 231, 1-(3-((2-((4-fluoro-3-(trifluoromethyl)phenyl)carbamoyl)-6-(trifluoromethyl)benzo[b]thiophen-3-yl)carbamoyl)-4-methoxyphenyl)-N-(2-hydroxyethyl) piperidine-3-carboxamide]
9.8 | COc1ccc(C2=NOC3CN(C(=O)CO)CC23)cc1C(=O)Nc1c(C(=O)Nc2ccc(F)c(C(F)(F)F)c2)sc2cc(C(F)(F)F)ccc12 (single isomer, unassigned) [Example 242, N-(4-fluoro-3-(trifluoromethyl)phenyl)-3-(5-(5-(2-hydroxyacetyl)-3a,5,6,6a-tetrahydro-4H-pyrrolo[3,4-d]isoxazol-3-yl)-2-methoxy-benzamido)-6-(trifluoromethyl) benzo[b] thiophene-2-carboxamide]
1050 | COc1ccc(C2=NOC3CN(C(=O)CO)CC23)cc1C(=O)Nc1c(C(=O)Nc2ccc(F)c(C(F)(F)F)c2)sc2cc(C(F)(F)F)ccc12 (single isomer, unassigned) [Example 243, N-(4-fluoro-3-(trifluoromethyl)phenyl)-3-(5-(5-(2-hydroxyacetyl)-3a,5,6,6a-tetrahydro-4H-pyrrolo[3,4-d]isoxazol-3-yl)-2-methoxy-benzamido)-6-(trifluoromethyl) benzo[b] thiophene-2-carboxamide]
360 | COc1ccc(C2=NOC3CN(C(=O)OC(C)(C)C)CC23)cc1C(=O)Nc1c(C(=O)Nc2ccc(F)c(C(F)(F)F)c2)sc2cc(C(F)(F)F)ccc12 (single isomer, unassigned) [Example 244, tert-butyl 3-(3-((2-((4-fluoro-3-(trifluoromethyl)phenyl)carbamoyl)-6-(trifluoromethyl)benzo[b]thiophen-3-yl)carbamoyl)-4-methoxyphenyl)-3a,4,6,6a-tetrahydro-5H-pyrrolo[3,4-d]isoxazole-5-carboxylate]
463 | COc1ccc(C2=NOC3CN(C(=O)OC(C)(C)C)CC23)cc1C(=O)Nc1c(C(=O)Nc2ccc(F)c(C(F)(F)F)c2)sc2cc(C(F)(F)F)ccc12 (single isomer, unassigned) [Example 245, tert-butyl 3-(3-((2-((4-fluoro-3-(trifluoromethyl)phenyl)carbamoyl)-6-(trifluoromethyl)benzo[b]thiophen-3-yl)carbamoyl)-4-methoxyphenyl)-3a,4,6,6a-tetrahydro-5H-pyrrolo[3,4-d]isoxazole-5-carboxylate]
545 | COc1ccc(C2=NOC3CN(C(=O)CO)CC23)cc1C(=O)Nc1c(C(=O)Nc2ccc(F)c(C(F)(F)F)c2)sc2ccccc12 (single isomer, unassigned) [Example 248, N-[4-fluoro-3-(trifluoromethyl)phenyl]-3-{5-[5-(2-hydroxyacetyl) 3aH,4H,5H,6H, 6aH-pyrrolo[3,4-d][1,2]oxazol-3-yl]-2-methoxy-benzamido}-1-benzothiophene-2-carboxamide]
3700 | COc1ccc(C2=NOC(CO)C2)cc1C(=O)Nc1c(C(=O)Nc2ccc(F)c(C(F)(F)F)c2)sc2cc(C(F)(F)F)ccc12 (single isomer, unassigned) [Example 249, N-(4-fluoro-3-(trifluoromethyl)phenyl)-3-(5-(5-(hydroxymethyl)-4,5-dihydroisoxazol-3-yl)-2-methoxy-benzamido)-6-(trifluoromethyl) benzo[b] thiophene-2-carboxamide]
280 | COc1ccc(C2=NOC(CO)C2)cc1C(=O)Nc1c(C(=O)Nc2ccc(F)c(C(F)(F)F)c2)sc2cc(C(F)(F)F)ccc12 (single isomer, unassigned) [Example 250, N-(4-fluoro-3-(trifluoromethyl)phenyl)-3-(5-(5-(hydroxymethyl)-4,5-dihydroisoxazol-3-yl)-2-methoxy-benzamido)-6-(trifluoromethyl) benzo[b] thiophene-2-carboxamide]
192 | COc1ccc(C2=NOC(C)(CO)C2)cc1C(=O)Nc1c(C(=O)Nc2ccc(F)c(C(F)(F)F)c2)sc2cc(C(F)(F)F)ccc12 (single isomer, unassigned) [Example 253, N-(4-fluoro-3-(trifluoromethyl)phenyl)-3-(5-(5-(hydroxymethyl)-5-methyl-4,5-dihydroisoxazol-3-yl)-2-methoxy-benzamido)-6-(trifluoromethyl) benzo[b] thiophene-2-carboxamide]
1020 | COc1ccc(C2=NOC(C)(CO)C2)cc1C(=O)Nc1c(C(=O)Nc2ccc(F)c(C(F)(F)F)c2)sc2cc(C(F)(F)F)ccc12 (single isomer, unassigned) [Example 254, N-(4-fluoro-3-(trifluoromethyl)phenyl)-3-(5-(5-(hydroxymethyl)-5-methyl-4,5-dihydroisoxazol-3-yl)-2-methoxy-benzamido)-6-(trifluoromethyl) benzo[b] thiophene-2-carboxamide]
498 | COc1ccc(C2=NOC3COCC23)cc1C(=O)Nc1c(C(=O)Nc2ccc(F)c(C(F)(F)F)c2)sc2cc(C(F)(F)F)ccc12 (single isomer, unassigned) [Example 255, 3-(5-{3aH,4H,6H,6aH-furo[3,4-d][1,2]oxazol-3-yl}-2-methoxy-benzamido)-N-[4-fluoro-3-(trifluoromethyl)phenyl]-6-(trifluoromethyl)-1-benzothiophene-2-carboxamide]
166 | COc1ccc(C2=NOC(C(C)(C)O)C2)cc1C(=O)Nc1c(C(=O)Nc2ccc(F)c(C(F)(F)F)c2)sc2cc(C(F)(F)F)ccc12 (single isomer, unassigned) [Example 257, N-[4-fluoro-3-(trifluoromethyl)phenyl]-3-{5-[5-(2-hydroxypropan-2-yl)-4,5-dihydro-1,2-oxazol-3-yl]-2-methoxy-benzamido}-6-(trifluoromethyl)-1-benzothiophene-2-carboxamide]
673 | COc1ccc(C2=NOC(C(C)(C)O)C2)cc1C(=O)Nc1c(C(=O)Nc2ccc(F)c(C(F)(F)F)c2)sc2cc(C(F)(F)F)ccc12 (single isomer, unassigned) [Example 258, N-[4-fluoro-3-(trifluoromethyl)phenyl]-3-{5-[5-(2-hydroxypropan-2-yl)-4,5-dihydro-1,2-oxazol-3-yl]-2-methoxy-benzamido}-6-(trifluoromethyl)-1-benzothiophene-2-carboxamide]
364 | COc1ccc(C2=NOC3CC(N)CC23)cc1C(=O)Nc1c(C(=O)Nc2ccc(F)c(C(F)(F)F)c2)sc2cc(C(F)(F)F)ccc12 (single isomer, unassigned) [Example 259, 3-(5-{5-amino-3aH,4H,5H,6H, 6aH-cyclopenta[d] [1,2]oxazol-3-yl}-2-methoxy-benzamido)-N-[4-fluoro-3-(trifluoromethyl)phenyl]-6-(trifluoromethyl)-1-benzothiophene-2-carboxamide]
723 | COc1ccc(C2=NOC3CC(NC(=O)C(C)(C)O)CC23)cc1C(=O)Nc1c(C(=O)Nc2ccc(F)c(C(F)(F)F)c2)sc2cc(C(F)(F)F)ccc12 (single isomer, unassigned) [Example 262, N-[4-fluoro-3-(trifluoromethyl)phenyl]-3-{5-[5-(2-hydroxy-2-methyl-propanamido)-3aH,4H,5H,6H, 6aH-cyclopenta[d] [1,2]oxazol-3-yl]-2-methoxy-benzamido}-6-(trifluoromethyl)-1-benzothiophene-2-carboxamide]
122 | COc1ccc(C2=NOC3CC(NC(=O)CO)CC23)cc1C(=O)Nc1c(C(=O)Nc2ccc(F)c(C(F)(F)F)c2)sc2cc(C(F)(F)F)ccc12 (single isomer, unassigned) [Example 263, N-[4-fluoro-3-(trifluoromethyl)phenyl]-3-{5-[5-(2-hydroxyacetamido)-3aH,4H,5H,6H, 6aH-cyclopenta[d] [1,2]oxazol-3-yl]-2-methoxy-benzamido}-6-(trifluoromethyl)-1-benzothiophene-2-carboxamide]
3140 | COc1ccc(C2=NOC3CC(NC(=O)CO)CC23)cc1C(=O)Nc1c(C(=O)Nc2ccc(F)c(C(F)(F)F)c2)sc2cc(C(F)(F)F)ccc12 (single isomer, unassigned) [Example 264, N-[4-fluoro-3-(trifluoromethyl)phenyl]-3-{5-[5-(2-hydroxyacetamido)-3aH,4H,5H,6H, 6aH-cyclopenta[d] [1,2]oxazol-3-yl]-2-methoxy-benzamido}-6-(trifluoromethyl)-1-benzothiophene-2-carboxamide]
